Test results: patent publication US20080292561A1, “Pyrazolo-Pyrimidine Derivatives as Anti-Inflammatory Agents” (Glaxo Group Limited, priority 2005, published 2008)

Each compound was assayed on NFkB activity (assay: Glucocorticoid mediated transrepression of NFkB activity (A549 cells, ELAM promoter alkaline phosphatase reporter, TNFα)). Conditions: Homo sapiens, A549, 16 h, Human A549 lung epithelial cells, 3 ng/ml human recombinant TNFα, read-out: pIC50, transrepression of NFkB activity (converted).
Type: cell-based
Excerpt: Human A549 lung epithelial cells were engineered to contain a secreted placental alkaline phosphatase gene under the control of the distal region of the NFkB dependent ELAM promoter as previously described in Ray, K. P., Farrow, S., Daly, M., Talabot, F. and Searle, N. “Induction of the E-selectin promoter by interleukin 1 and tumour necrosis factor alpha, and inhibition by glucocorticoids” Biochemical Journal (1997) 328: 707-15.
Compounds were solvated and diluted in DMSO, and transferred directly into assay plates such that the final concentration of DMSO was 0.7%. Following the addition of cells (40K per well), plates were incubated for 1 hr prior to the addition of 3 ng/ml human recombinant TNFα. Following continued incubation for 16 hr, alkaline phosphatase activity was determined by measuring the change in optical density at 405 nm with time following the addition of 0.7 volumes of assay buffer (1 mg/ml p-nitrophenylphosphate dissolved in 1M diethanolamine, 0.28M NaCl, 0.5 mM MgCl2). Dose response curves were constructed from which EC50 values were estimated.

SMILES	IC50 [nM]
Cc1nc(NCC(O)(CC(C)(C)c2cccc3c2OCC3)C(F)(F)F)c2cnn(-c3ccc(F)cc3)c2n1 (centres unmarked) [Example 3, 4-(2,3-Dihydro-1-benzofuran-7-yl)-1,1,1-trifluoro-2-({[1-(4-fluorophenyl)-6-methyl-1H-pyrazolo[3,4-d]pyrimidin-4-yl]amino}methyl)-4-methyl-2-pentanol]	< 100
Cc1nc(NCC(O)(CC(C)(C)c2cccc3c2OCC3)C(F)(F)F)c2cnn(-c3ccccc3F)c2n1 (centres unmarked) [Example 2, 4-(2,3-Dihydro-1-benzofuran-7-yl)-1,1,1-trifluoro-2-({[1-(2-fluorophenyl)-6-methyl-1H-pyrazolo[3,4-d]pyrimidin-4-yl]amino}methyl)-4-methyl-2-pentanol]	< 100
CCc1nc(NCC(O)(CC(C)(C)c2cccc3c2OCC3)C(F)(F)F)c2cnn(-c3ccc(F)cc3)c2n1 (centres unmarked) [Example 7, 4-(2,3-Dihydro-1-benzofuran-7-yl)-2-({[6-ethyl-1-(4-fluorophenyl)-1H-pyrazolo[3,4-d]pyrimidin-4-yl]amino}methyl)-1,1-trifluoro-4-methyl-2-pentanol]	< 100
COc1ccc(F)cc1C(C)(C)CC(O)(CNc1nc(C)nc2c1cnn2-c1ccc(F)cc1F)C(F)(F)F (centres unmarked) [Example 16, 2-({[1-(2,4-Difluorophenyl)-6-methyl-1H-pyrazolo[3,4-d]pyrimidin-4-yl]amino}methyl)-1,1,1-trifluoro-4-[5-fluoro-2-(methyloxy)phenyl]-4-methyl-2-pentanol]	< 100
CCc1nc(NCC(O)(CC(C)(C)c2cccc3c2OCC3)C(F)(F)F)c2cnn(-c3cccnc3)c2n1 (centres unmarked) [Example 9, 4-(2,3-Dihydro-1-benzofuran-7-yl)-2-({[6-ethyl-1-(3-pyridinyl)-1H-pyrazolo[3,4-d]pyrimidin-4-yl]amino}methyl)-1,1,1-trifluoro-4-methyl-2-pentanol]	< 100
COc1ccc(F)cc1C(C)(C)CC(O)(CNc1nc(C)nc2c1cnn2-c1ccccc1F)C(F)(F)F (centres unmarked) [Example 14, 1,1,1-Trifluoro-4-[5-fluoro-2-(methyloxy)phenyl]-2-({[1-(2-fluorophenyl)-6-methyl-1H-pyrazolo[3,4-d]pyrimidin-4-yl]amino}methyl)-4-methyl-2-pentanol]	< 100
COc1ccc(F)cc1C(C)(C)CC(O)(CNc1nc(C)nc2c1cnn2-c1ccccc1)C(F)(F)F (centres unmarked) [Example 13, 1,1,1-Trifluoro-4-[5-fluoro-2-(methyloxy)phenyl]-4-methyl-2-{[(6-methyl-1-phenyl-1H-pyrazolo[3,4-d]pyrimidin-4-yl)amino]methyl}-2-pentanol]	< 100
COc1ccc(F)cc1C(C)(C)CC(O)(CNc1nc(C)nc2c1cnn2-c1ccc(F)cc1)C(F)(F)F (centres unmarked) [Example 15, 1,1,1-Trifluoro-4-[5-fluoro-2-(methyloxy)phenyl]-2-({[1-(4-fluorophenyl)-6-methyl-1H-pyrazolo[3,4-d]pyrimidin-4-yl]amino}methyl)-4-methyl-2-pentanol]	< 100
Cc1nc(NCC(O)(CC(C)(C)c2cccc3c2OCC3)C(F)(F)F)c2cnn(-c3ccc(F)cc3F)c2n1 (centres unmarked) [Example 4, 2-({[1-(2,4-Difluorophenyl)-6-methyl-1H-pyrazolo[3,4-d]pyrimidin-4-yl]amino}methyl)-4-(2,3-dihydro-1-benzofuran-7-yl)-1,1,1-trifluoro-4-methyl-2-pentanol]	< 100
COc1ccc(F)cc1C(C)(C)CC(O)(CNc1nc(C)nc2c1cnn2-c1ccsc1)C(F)(F)F (centres unmarked) [Example 19, 1,1,1-Trifluoro-4-[5-fluoro-2-(methyloxy)phenyl]-4-methyl-2-({[6-methyl-1-(3-thienyl)-1H-pyrazolo[3,4-d]pyrimidin-4-yl]amino}methyl)-2-pentanol]	< 100
CCc1nc(NCC(O)(CC(C)(C)c2cccc3c2OCC3)C(F)(F)F)c2cnn(-c3ccsc3)c2n1 (centres unmarked) [Example 12, 4-(2,3-Dihydro-1-benzofuran-7-yl)-2-({[6-ethyl-1-(3-thienyl)-1H-pyrazolo[3,4-d]pyrimidin-4-yl]amino}methyl)-1,1,1-trifluoro-4-methyl-2-pentanol]	< 100
CCc1nc(NCC(O)(CC(C)(C)c2cccc3c2OCC3)C(F)(F)F)c2cnn(-c3ccccc3F)c2n1 (centres unmarked) [Example 6, 4-(2,3-Dihydro-1-benzofuran-7-yl)-2-({[6-ethyl-1-(2-fluorophenyl)-1H-pyrazolo[3,4-d]pyrimidin-4-yl]amino}methyl)-1,1,1-trifluoro-4-methyl-2-pentanol]	< 100
COc1ccc(F)cc1C(C)(C)CC(O)(CNc1nc(C)nc2c1cnn2-c1cccnc1)C(F)(F)F (centres unmarked) [Example 17, 1,1,1-Trifluoro-4-[5-fluoro-2-(methyloxy)phenyl]-4-methyl-2-({[6-methyl-1-(3-pyridinyl)-1H-pyrazolo[3,4-d]pyrimidin-4-yl]amino}methyl)-2-pentanol]	< 100
CCc1nc(NCC(O)(CC(C)(C)c2cccc3c2OCC3)C(F)(F)F)c2cnn(-c3ccc(F)nc3)c2n1 (centres unmarked) [Example 11, 4-(2,3-Dihydro-1-benzofuran-7-yl)-2-({[6-ethyl-1-(6-fluoro-3-pyridinyl)-1H-pyrazolo[3,4-d]pyrimidin-4-yl]amino}methyl)-1,1,1-trifluoro-4-methyl-2-pentanol]	< 100
Cc1nc(NCC(O)(CC(C)(C)c2cccc3c2OCC3)C(F)(F)F)c2cnn(-c3ccccc3)c2n1 (centres unmarked) [Example 1, 4-(2,3-Dihydro-1-benzofuran-7-yl)-1,1,1-trifluoro-4-methyl-2-{[(6-methyl-1-phenyl-1H-pyrazolo[3,4-d]pyrimidin-4-yl)amino]methyl}-2-pentanol]	< 100
CCc1nc(NCC(O)(CC(C)(C)c2cccc3c2OCC3)C(F)(F)F)c2cnn(-c3ccncc3)c2n1 (centres unmarked) [Example 10, 4-(2,3-Dihydro-1-benzofuran-7-yl)-2-({[6-ethyl-1-(4-pyridinyl)-1H-pyrazolo[3,4-d]pyrimidin-4-yl]amino}methyl)-1,1,1-trifluoro-4-methyl-2-pentanol]	< 100
COc1ccc(F)cc1C(C)(C)CC(O)(CNc1nc(C)nc2c1cnn2-c1ccncc1)C(F)(F)F (centres unmarked) [Example 18, 1,1,1-Trifluoro-4-[5-fluoro-2-(methyloxy)phenyl]-4-methyl-2-({[6-methyl-1-(4-pyridinyl)-1H-pyrazolo[3,4-d]pyrimidin-4-yl]amino}methyl)-2-pentanol]	< 100
CCc1nc(NCC(O)(CC(C)(C)c2cccc3c2OCC3)C(F)(F)F)c2cnn(-c3ccccc3)c2n1 (centres unmarked) [Example 5, 4-(2,3-Dihydro-1-benzofuran-7-yl)-2-{[(6-ethyl-1-phenyl-1H-pyrazolo[3,4-d]pyrimidin-4-yl)amino]methyl}-1,1,1-trifluoro-4-methyl-2-pentanol]	< 100

Next, values leading:

IC50 [nM]	SMILES
< 100	COc1ccc(F)cc1C(C)(C)CC(O)(CNc1nc(C)nc2c1cnn2-c1cccc(C#N)c1)C(F)(F)F (centres unmarked) [Example 27, 3-(4-{[4-[5-Fluoro-2-(methyloxy)phenyl]-2-hydroxy-4-methyl-2-(trifluoromethyl)pentyl]amino}-6-methyl-1H-pyrazolo[3,4-d]pyrimidin-1-yl)benzonitrile]
< 100	CCc1nc(NCC(O)(CC(C)(C)c2cc(F)ccc2OC)C(F)(F)F)c2cnn(-c3ccc(F)cc3)c2n1 (centres unmarked) [Example 24, 2-({[6-Ethyl-1-(4-fluorophenyl)-1H-pyrazolo[3,4-d]pyrimidin-4-yl]amino}methyl)-1,1,1-trifluoro-4-[5-fluoro-2-(methyloxy)phenyl]-4-methyl-2-pentanol]
< 100	CCc1nc(NCC(O)(CC(C)(C)c2cc(F)ccc2OC)C(F)(F)F)c2cnn(-c3ccccc3)c2n1 (centres unmarked) [Example 26, 2-{[(6-Ethyl-1-phenyl-1H-pyrazolo[3,4-d]pyrimidin-4-yl)amino]methyl}-1,1,1-trifluoro-4-[5-fluoro-2-(methyloxy)phenyl]-4-methyl-2-pentanol]
< 100	COC(=O)c1cccc(-n2ncc3c(NCC(O)(CC(C)(C)c4cc(F)ccc4OC)C(F)(F)F)nc(C)nc32)c1 (centres unmarked) [Example 23, Methyl 3-(4-{[4-[5-fluoro-2-(methyloxy)phenyl]-2-hydroxy-4-methyl-2-(trifluoromethyl)pentyl]amino}-6-methyl-1H-pyrazolo[3,4-d]pyrimidin-1-yl)benzoate]
< 100	COc1ccc(F)cc1C(C)(C)CC(O)(CNc1nc(C)nc2c1cnn2-c1ccc(C#N)cc1)C(F)(F)F (centres unmarked) [Example 21, 4-(4-{[4-[5-Fluoro-2-(methyloxy)phenyl]-2-hydroxy-4-methyl-2-(trifluoromethyl)pentyl]amino}-6-methyl-1H-pyrazolo[3,4-d]pyrimidin-1-yl)benzonitrile]
< 100	Cc1nc(NCC(O)(CC(C)(C)c2cc(F)ccc2O)C(F)(F)F)c2cnn(-c3ccc(F)cc3F)c2n1 (single isomer, unassigned) [Example 25, 2-[3-({[1-(2,4-Difluorophenyl)-6-methyl-1H-pyrazolo[3,4-d]pyrimidin-4-yl]amino}methyl)-4,4,4-trifluoro-3-hydroxy-1,1-dimethylbutyl]-4-fluorophenol]
< 100	CCc1nc(NCC(O)(CC(C)(C)c2cccc3c2OCC3)C(F)(F)F)c2cnn(-c3cccc(C#N)c3)c2n1 (centres unmarked) [Example 29, 3-(4-{[4-(2,3-Dihydro-1-benzofuran-7-yl)-2-hydroxy-4-methyl-2-(trifluoromethyl)pentyl]amino}-6-ethyl-1H-pyrazolo[3,4-d]pyrimidin-1-yl)benzonitrile]
< 100	CCOC(=O)c1cccc(-n2ncc3c(NCC(O)(CC(C)(C)c4cc(F)ccc4OC)C(F)(F)F)nc(C)nc32)c1 (centres unmarked) [Example 22, Ethyl 3-(4-{[4-[5-fluoro-2-(methyloxy)phenyl]-2-hydroxy-4-methyl-2-(trifluoromethyl)pentyl]amino}-6-methyl-1H-pyrazolo[3,4-d]pyrimidin-1-yl)benzoate]
